Assay results published in patent US7368443B2, “2,6-disubstituted piperidines and piperazine compounds” (University of Kentucky Research Foundation, priority 1999, dated 2008).
Where two headings read alike, the source gives them in different places.

Legend:
[1] = molecular target: T1, α7* nicotinic receptor (Rattus norvegicus, UniProt Q05941); assay: [3H]Methyllycaconitine ([3H]MLA) binding assay
T1 construct: Whole rat brain (minus cortex, striatum and cerebellum) was homogenized; from tissue; host or cells: rat whole brain membranes (minus cortex, striatum and cerebellum)
T1 sequence (Q05941 23-502): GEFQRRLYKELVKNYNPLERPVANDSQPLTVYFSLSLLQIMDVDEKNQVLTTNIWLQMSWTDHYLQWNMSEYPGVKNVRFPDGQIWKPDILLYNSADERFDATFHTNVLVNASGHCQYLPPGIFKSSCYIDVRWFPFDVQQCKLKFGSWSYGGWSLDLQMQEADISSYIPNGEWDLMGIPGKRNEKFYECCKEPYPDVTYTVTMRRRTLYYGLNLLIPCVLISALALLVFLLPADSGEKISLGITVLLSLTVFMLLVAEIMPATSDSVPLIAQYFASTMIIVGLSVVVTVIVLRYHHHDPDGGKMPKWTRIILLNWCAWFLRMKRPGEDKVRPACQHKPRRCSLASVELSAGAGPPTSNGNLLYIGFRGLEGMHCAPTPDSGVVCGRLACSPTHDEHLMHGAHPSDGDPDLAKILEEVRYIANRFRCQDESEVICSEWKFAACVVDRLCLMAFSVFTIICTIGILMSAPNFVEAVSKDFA

[2] = molecular target: α4β2* nicotinic receptor (Rattus norvegicus, UniProt P09483+P12390); assay: High affinity [3H]nicotine binding assay; design: The pellet containing the striatal membranes was resuspended; from tissue; host or cells: rat striatal membranes
Sequence of α4β2* nicotinic receptor (P09483 31-630): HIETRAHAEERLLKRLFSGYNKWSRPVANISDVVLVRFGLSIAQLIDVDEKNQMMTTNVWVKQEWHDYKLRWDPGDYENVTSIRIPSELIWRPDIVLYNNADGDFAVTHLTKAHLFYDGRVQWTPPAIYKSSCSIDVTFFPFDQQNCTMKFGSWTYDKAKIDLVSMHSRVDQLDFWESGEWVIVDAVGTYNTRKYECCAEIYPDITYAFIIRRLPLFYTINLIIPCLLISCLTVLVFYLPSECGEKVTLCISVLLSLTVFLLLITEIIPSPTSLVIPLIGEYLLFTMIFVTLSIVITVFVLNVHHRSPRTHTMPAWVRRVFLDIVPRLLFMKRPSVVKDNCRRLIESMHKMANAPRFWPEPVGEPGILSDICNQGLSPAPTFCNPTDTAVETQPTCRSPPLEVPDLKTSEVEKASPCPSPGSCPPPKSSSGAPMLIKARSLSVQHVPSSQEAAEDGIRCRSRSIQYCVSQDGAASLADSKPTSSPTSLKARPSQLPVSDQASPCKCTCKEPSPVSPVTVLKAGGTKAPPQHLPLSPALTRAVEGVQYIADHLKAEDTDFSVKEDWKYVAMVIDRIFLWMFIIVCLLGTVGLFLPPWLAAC
Sequence of α4β2* nicotinic receptor (P12390 25-500): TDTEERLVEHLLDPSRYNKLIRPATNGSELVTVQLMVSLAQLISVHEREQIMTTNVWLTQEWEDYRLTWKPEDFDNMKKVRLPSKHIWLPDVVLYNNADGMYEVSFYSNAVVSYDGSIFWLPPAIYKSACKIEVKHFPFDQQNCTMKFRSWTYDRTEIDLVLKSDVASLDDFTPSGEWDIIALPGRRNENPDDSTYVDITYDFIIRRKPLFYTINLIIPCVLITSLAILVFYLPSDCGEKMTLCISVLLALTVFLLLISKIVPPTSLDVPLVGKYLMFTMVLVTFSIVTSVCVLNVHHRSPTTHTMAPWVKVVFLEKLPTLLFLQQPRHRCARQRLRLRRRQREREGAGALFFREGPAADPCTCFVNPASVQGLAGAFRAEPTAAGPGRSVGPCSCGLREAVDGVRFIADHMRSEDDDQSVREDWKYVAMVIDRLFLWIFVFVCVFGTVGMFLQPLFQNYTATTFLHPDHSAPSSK

[3] = test system: methamphetamine-evoked endogenous DA release from striatal slices; assay: Methamphetamine-evoked endogenous DA overflow from superfused striatal slices; format: cell-based; conditions: read-out: Inhibition of Methamphetamine Evoked DA Overflow IC50 (Mean)
[4] = molecular target: T2, dopamine transporter (DAT) (Rattus norvegicus, UniProt P23977); assay: [3H]Dopamine uptake assay, striatal synaptosomes; format: biochemical
T2 construct: Striata were homogenized in 20 ml of ice-cold sucrose solution; from tissue; host or cells: striatal synaptosomes
T2 sequence (P23977 whole entry): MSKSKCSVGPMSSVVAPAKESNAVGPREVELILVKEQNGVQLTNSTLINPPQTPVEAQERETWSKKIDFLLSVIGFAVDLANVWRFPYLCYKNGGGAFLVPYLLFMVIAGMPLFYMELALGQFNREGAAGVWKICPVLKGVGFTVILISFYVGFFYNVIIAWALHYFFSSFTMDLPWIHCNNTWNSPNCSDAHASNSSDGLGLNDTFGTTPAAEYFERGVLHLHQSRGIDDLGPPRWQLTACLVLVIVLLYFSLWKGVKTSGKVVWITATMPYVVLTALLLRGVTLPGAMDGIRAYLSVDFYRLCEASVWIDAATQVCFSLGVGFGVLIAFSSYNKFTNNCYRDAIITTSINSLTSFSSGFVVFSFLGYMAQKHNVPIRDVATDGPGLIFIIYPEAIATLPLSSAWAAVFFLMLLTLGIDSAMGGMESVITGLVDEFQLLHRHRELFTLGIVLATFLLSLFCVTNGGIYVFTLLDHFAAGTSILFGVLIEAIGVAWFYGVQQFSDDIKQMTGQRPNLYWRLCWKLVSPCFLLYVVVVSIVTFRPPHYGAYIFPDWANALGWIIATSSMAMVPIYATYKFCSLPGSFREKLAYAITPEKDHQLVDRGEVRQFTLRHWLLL

[5] = molecular target: T3, serotonin transporter (SERT) (Rattus norvegicus, UniProt P31652); assay: [3H]5-HT uptake assay, hippocampal synaptosomes; format: biochemical
T3 construct: Rat hippocampus was homogenized in 20 mL cold 0.32 M sucrose; from tissue; host or cells: rat hippocampal synaptosomes
T3 sequence (P31652 whole entry): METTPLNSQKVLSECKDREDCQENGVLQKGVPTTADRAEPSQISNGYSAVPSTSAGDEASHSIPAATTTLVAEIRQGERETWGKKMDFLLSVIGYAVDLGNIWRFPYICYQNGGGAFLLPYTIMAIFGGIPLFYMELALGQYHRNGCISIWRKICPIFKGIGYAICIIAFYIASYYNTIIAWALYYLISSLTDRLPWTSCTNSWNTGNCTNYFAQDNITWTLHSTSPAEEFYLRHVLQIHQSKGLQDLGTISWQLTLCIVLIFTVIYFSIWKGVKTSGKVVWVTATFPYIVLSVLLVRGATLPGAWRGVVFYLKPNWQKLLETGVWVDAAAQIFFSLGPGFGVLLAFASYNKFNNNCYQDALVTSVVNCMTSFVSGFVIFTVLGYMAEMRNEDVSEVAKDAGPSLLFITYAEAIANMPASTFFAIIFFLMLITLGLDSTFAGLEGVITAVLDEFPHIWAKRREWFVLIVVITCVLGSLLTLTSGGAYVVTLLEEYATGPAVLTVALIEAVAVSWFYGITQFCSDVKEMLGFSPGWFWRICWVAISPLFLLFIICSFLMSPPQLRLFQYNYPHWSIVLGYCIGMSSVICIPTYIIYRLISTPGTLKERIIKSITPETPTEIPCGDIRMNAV

[6] = molecular target: α6β2* nicotinic receptor (Rattus norvegicus, UniProt P12390+P43143); assay: Nicotine-evoked [3H]DA overflow from superfused striatal slices; format: cell-based
Sequence of α6β2* nicotinic receptor (P43143 31-493): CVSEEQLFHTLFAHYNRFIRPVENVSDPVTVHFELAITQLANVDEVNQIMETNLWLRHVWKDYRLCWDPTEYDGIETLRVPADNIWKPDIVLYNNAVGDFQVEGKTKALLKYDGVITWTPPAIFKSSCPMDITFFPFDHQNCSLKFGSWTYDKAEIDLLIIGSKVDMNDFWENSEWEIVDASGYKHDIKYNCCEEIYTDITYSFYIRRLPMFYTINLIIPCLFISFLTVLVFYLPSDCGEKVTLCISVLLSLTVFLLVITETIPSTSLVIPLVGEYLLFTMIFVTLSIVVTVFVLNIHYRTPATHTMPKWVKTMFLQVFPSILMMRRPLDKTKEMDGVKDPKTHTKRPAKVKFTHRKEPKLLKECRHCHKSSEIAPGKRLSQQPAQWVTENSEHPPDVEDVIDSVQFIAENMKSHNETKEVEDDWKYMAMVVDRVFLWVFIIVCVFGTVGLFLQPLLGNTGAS
Sequence of α6β2* nicotinic receptor (P12390 25-500): as the sequence (P12390 25-500) above

[7] = Table 1, rat whole brain membranes, read-out: [3H]MLA Binding (Ki) α7*
[8] = Table 1, rat striatal membranes, read-out: [3H]Nicotine Binding (Ki) α4β2*
[9] = Table 1, read-out: [3H]DA Uptake (Ki)
[10] = Table 3, earlier study, read-out: Ki [3H]-Dopamine Uptake Assay
[11] = Table 1, read-out: [3H]5-HT Uptake (Ki) SERT
[12] = Table 3, earlier study, read-out: Ki [3H]-Nicotine Binding Assay
[13] = read-out: inhibition of nicotine-evoked [3H]DA overflow IC50

Structure (SMILES): CN1[C@@H](CCc2ccccc2F)CCC[C@H]1CCc1ccccc1F [Compound 31, N-methyl-2,6-cis-di-(o-fluorophenethyl)piperidine]
- Ki [1, 7]: > 100 µM
- Ki [2, 8]: > 100 µM

Structure (SMILES): CN1[C@@H](CCc2cccc(C(F)(F)F)c2)CCC[C@H]1CCc1cccc(C(F)(F)F)c1 [Compound 45, N-methyl-2,6-cis-di-(m-trifluoromethylphenethyl)piperidine]
- Ki [1, 7]: > 100 µM
- Ki [2, 8]: > 100 µM

Structure (SMILES): CN1[C@@H](CCc2ccccc2)CCC[C@@H]1CCc1ccccc1 [Compound 19, N-methyl-2R,6R-trans-di-(2-phenethyl)piperidine]
- IC50 ([3]; Rattus norvegicus): > 100 µM

Structure (SMILES): Fc1cccc(CC[C@H]2CCC[C@@H](CCc3cccc(F)c3)N2)c1 [Compound 32, 2,6-cis-di-(m-fluorophenethyl)piperidine]
- Ki [1, 7]: > 100 µM

Structure (SMILES): CN1C(CC(=O)c2ccccc2)CCCC1CC(O)c1ccccc1 (stereo not drawn) [Compound 1, 2-[6-(β-hydroxyphenethyl)-1-methyl-2-piperidyl]-acetophenone, reference compound]
- Ki [4, 9]: 29.4 µM
- Ki [4, 10]: 45 µM
- Ki [5, 11]: 25.7 µM

Structure (SMILES): CN1[C@H](C[C@H](O)c2ccccc2)CCC[C@@H]1/C=C/c1ccccc1 [Compound 8]
- Ki [1]: > 100 µM
- Ki [2, 8]: 9.8 µM

Structure (SMILES): COc1cccc(CC[C@H]2CCC[C@@H](CCc3cccc(OC)c3)N2)c1 [Compound 38, 2,6-cis-di-(m-methoxyphenethyl)piperidine]
- Ki [1, 7]: > 100 µM
- Ki [2, 8]: > 100 µM

Structure (SMILES): Cc1ccc(CC[C@H]2CCC[C@@H](CCc3ccc(C)cc3)N2C)cc1 [Compound 43, N-methyl-2,6-cis-di-(p-methylphenethyl)piperidine]
- Ki [1, 7]: > 100 µM

Structure (SMILES): CN1[C@@H](C[C@@H](O)c2ccccc2)CCC[C@H]1C[C@H](O)c1ccccc1 [Compound 4, lobelanidine]
- Ki [1, 7]: 3.29 µM
- Ki [2, 8]: 3.1 µM
- Ki [2, 12]: 0.93 µM
- Ki [4, 9]: 33.3 µM
- inhibition of DAT, potency compared with lobeline ([4]; Table 1 data): equipotently
- Ki [4, 10]: 54 µM
- inhibition of DAT, potency compared with lobeline ([4]; earlier study (Table 3)): equipotently
- Ki [5, 11]: 25.6 µM

Structure (SMILES): CN1[C@@H](CC(=O)c2ccccc2)CCC[C@H]1CC(=O)c1ccccc1 [Compound 3]
- Ki [1, 7]: 22.7 µM
- Ki [2, 8]: 37.1 µM
- Ki [2, 12]: 11 µM
- Ki [4, 9]: 15.8 µM
- Ki [4, 10]: 25 µM
- Ki [5, 11]: 3.31 µM

Structure (SMILES): CN1[C@@H](CCc2ccc(F)cc2)CCC[C@H]1CCc1ccc(F)cc1 [Compound 35, N-methyl-2,6-cis-di-(p-fluorophenethyl)piperidine]
- Ki [1, 7]: > 100 µM
- Ki [2, 8]: > 100 µM

Structure (SMILES): CN1[C@@H](CCc2cccc(F)c2)CCC[C@H]1CCc1cccc(F)c1 [Compound 33, N-methyl-2,6-cis-di-(m-fluorophenethyl)piperidine]
- Ki [1, 7]: > 100 µM
- Ki [2, 8]: > 100 µM

Structure (SMILES): COc1ccccc1CC[C@H]1CCC[C@@H](CCc2ccccc2OC)N1 [Compound 36, 2,6-cis-di-(o-methoxyphenethyl)piperidine]
- Ki [1, 7]: > 100 µM
- Ki [2, 8]: > 100 µM

Structure (SMILES): c1cc2c(cc1CC[C@H]1CCC[C@@H](CCc3ccc4c(c3)OCO4)N1)OCO2 [Compound 28]
- Ki [1, 7]: > 100 µM
- Ki [2, 8]: > 100 µM

Structure (SMILES): CN1[C@H](CCc2ccccc2)CCC[C@@H]1C[C@@H](O)c1ccccc1 [Compound 10, N-Methyl-2R-(2R-hydroxy-2-phenethyl)-6S-(2-phenethyl) piperidine]
- Ki [1, 7]: 1.25 µM
- Ki [2, 8]: > 100 µM
- Ki ([4]; [3H]DA Uptake (Ki)): 6.62 µM
- Ki ([5]; Table 1, data of a mixture of compound 10 and 11, read-out: [3H]5-HT Uptake (Ki) SERT): 0.01 µM
- Ki ([5]; read-out: inhibition of serotonin uptake Ki): 0.01 to 0.38 µM

Structure (SMILES): COc1ccc(CC[C@H]2CCC[C@@H](CCc3ccc(OC)cc3)N2)cc1 [Compound 40, 2,6-cis-di-(p-methoxyphenethyl)piperidine]
- Ki [1, 7]: > 100 µM
- Ki [2, 8]: > 100 µM

Structure (SMILES): CC(=O)OCc1ccc(CC[C@H]2CCC[C@@H](CCc3ccc(COC(C)=O)cc3)N2)cc1 [Compound 49, 2,6-cis-di-(p-acetoxymethylphenethyl)piperidine]
- Ki [1, 7]: > 100 µM
- Ki [2, 8]: > 100 µM

Structure (SMILES): CN1[C@@H](CCc2ccccc2)CCC[C@H]1CCc1ccccc1 [Compound 17, N-methyl-2,6-cis-di-(2-phenethyl)piperidine]
- Ki [1, 7]: 43.1 µM
- Ki [2, 8]: 77 µM
- Ki [2, 12]: 14.3 µM
- IC50 ([3]; Rattus norvegicus): 0.43 to 1.25 µM
- IC50 ([3]; superfused rat striatal slices): 0.44 µM
- Ki ([4]; Ki [3H]-Dopamine Uptake Assay): 3 µM
- Ki ([4]; [3H]DA Uptake (Ki)): 1.95 µM
- Ki ([5]; [3H]5-HT Uptake (Ki) SERT): 1.59 µM

Structure (SMILES): CN1[C@@H](C[C@H](O)c2ccccc2)CCC[C@H]1/C=C/c1ccccc1 (relative stereo) [Compound 7, N-Methyl-2R-(2S-hydroxy-2-phenethyl)-6S-trans-styrylpiperidine]
- Ki [1, 7]: > 100 µM
- Ki [2, 8]: > 100 µM
- Ki [2, 12]: 4.2 µM
- loss of affinity for the nicotinic receptor compared to lobeline ([2]; earlier study (Table 3)): 1000 fold
- Ki [4, 10]: 1.3 µM

Structure (SMILES): CCCN1[C@@H](CCc2ccccc2)CCC[C@H]1CCc1ccccc1 [Compound 27, N-(n-propyl)-2,6-cis-diphenethylpiperidine]
- Ki [1]: > 100 µM
- Ki [2, 8]: > 100 µM

Structure (SMILES): Clc1ccc(CC[C@H]2CCC[C@@H](CCc3ccc(Cl)cc3Cl)N2)c(Cl)c1 [Compound 50, 2,6-cis-di-(2,4-dichlorophenethyl)piperidine]
- Ki [1, 7]: > 100 µM
- Ki [2, 8]: > 100 µM

Structure (SMILES): CN1[C@H](CCc2ccccc2)CCC[C@H]1CCc1ccccc1 [Compound 18, N-methyl-2S,6S-trans-di-(2-phenethyl)piperidine]
- Ki [1, 7]: 24.3 µM
- IC50 [6, 13]: 0.003 µM
- IC50 ([3]; Rattus norvegicus): > 100 µM
- Ki ([4]; [3H]DA Uptake (Ki)): 3.69 µM
- Ki ([5]; [3H]5-HT Uptake (Ki) SERT): 2.92 µM

Structure (SMILES): Fc1ccccc1CC[C@H]1CCC[C@@H](CCc2ccccc2F)N1 [Compound 30, 2,6-cis-di-(o-fluorophenethyl)piperidine]
- Ki [1, 7]: > 100 µM
- Ki [2, 8]: > 100 µM

Structure (SMILES): CN1[C@H](CCc2ccccc2)CCC[C@@H]1C[C@H](O)c1ccccc1 [Compound 11, N-Methyl-2R-(2S-hydroxy-2-phenethyl)-6S-(2-phenethyl) piperidine]
- Ki [1, 7]: > 100 µM
- Ki [2, 8]: 32 µM

Structure (SMILES): CN1[C@@H](CCc2ccc(Cl)cc2Cl)CCC[C@H]1CCc1ccc(Cl)cc1Cl [Compound 51, N-methyl-2,6-cis-di-(2,4-dichlorophenethyl)piperidine]
- Ki [1, 7]: > 100 µM
- Ki [2, 8]: > 100 µM

Structure (SMILES): CCN1[C@@H](CCc2ccccc2)CCC[C@H]1CCc1ccccc1 [Compound 26, N-ethyl-2,6-cis-diphenethylpiperidine]
- Ki [1]: > 100 µM
- Ki [2, 8]: > 100 µM

Structure (SMILES): c1ccc(CC[C@H]2CCC[C@@H](CCc3ccccc3)N2)cc1 [Compound 25, 2,6-cis-diphenethylpiperidine]
- Ki [1]: > 100 µM
- IC50 ([6]; Table 1, inhibition of 10 μM S(−)-nicotine, NI: no inhibition, read-out: Inhibition of Nicotine-Evoked [3H]DA Overflow (IC50) α6β2*): 0.1 µM
- IC50 [6, 13]: 0.1 to 1 µM
- Ki [2, 8]: > 100 µM
- Ki [4, 9]: 1.03 µM
- Ki [5, 11]: 2.51 µM

Structure (SMILES): COc1ccc(CC[C@H]2CCC[C@@H](CCc3ccc(OC)cc3)N2C)cc1 [Compound 41, N-methyl-2,6-cis-di-(p-methoxyphenethyl)piperidine]
- Ki [1, 7]: > 100 µM
- Ki [2, 8]: > 100 µM

Structure (SMILES): CN1[C@@H](CCc2ccccc2)CCC[C@H]1C[C@H](O)c1ccccc1 [Compound 12]
- Ki [1, 7]: 36.4 µM
- Ki [2, 8]: 1.21 µM

Structure (SMILES): CN1[C@@H](/C=C/c2ccccc2)CCC[C@@H]1/C=C/c1ccccc1 [Compound 16, N-methyl-2R,6R-trans-di-trans-styryl piperidine]
- melting point: 92 to 93 °C
- Ki [2, 8]: 12.3 µM
- IC50 ([3]; Rattus norvegicus): 0.43 to 1.25 µM
- IC50 ([3]; superfused rat striatal slices): 0.43 µM

Structure (SMILES): CN1[C@H](CCc2ccccc2)CCC[C@@H]1CC(O)c1ccccc1 (mixture of isomers) [Compound 60]
- Ki [2, 12]: 0.16 µM
- Ki ([4]; Ki [3H]-Dopamine Uptake Assay): 8.9 µM

Structure (SMILES): CN1[C@@H](C[C@@H](O)c2ccccc2)CCC[C@H]1/C=C/c1ccccc1 [Compound 6, N-Methyl-2R-(2R-hydroxy-2-phenethyl)-6S-trans-styrylpiperidine]
- melting point: 104 to 105 °C
- Ki [1]: 1.6 µM
- Ki [2, 8]: 7.6 µM
- Ki ([4]; read-out: [3H]DA Uptake (Ki)): 0.86 µM
- Ki ([5]; [3H]5-HT Uptake (Ki) SERT): 0.04 µM
- Ki ([5]; inhibition of serotonin uptake Ki): 0.01 to 0.38 µM

Structure (SMILES): Cc1ccc(CC[C@H]2CCC[C@@H](CCc3ccc(C)cc3)N2)cc1 [Compound 42, 2,6-cis-di-(p-methylphenethyl)piperidine]
- Ki [1, 7]: > 100 µM
- Ki [2, 8]: > 100 µM

Structure (SMILES): FC(F)(F)c1cccc(CC[C@H]2CCC[C@@H](CCc3cccc(C(F)(F)F)c3)N2)c1 [Compound 44, 2,6-cis-di-(m-trifluoromethylphenethyl)piperidine]
- Ki [1, 7]: > 100 µM
- Ki [2, 8]: > 100 µM

Structure (SMILES): OCc1ccc(CC[C@H]2CCC[C@@H](CCc3ccc(CO)cc3)N2)cc1 [Compound 48, 2,6-cis-di-(p-hydroxymethylphenethyl)piperidine]
- Ki [1, 7]: > 100 µM
- Ki [2, 8]: > 100 µM

Structure (SMILES): Fc1ccc(CC[C@H]2CCC[C@@H](CCc3ccc(F)cc3)N2)cc1 [Compound 34, 2,6-cis-di-(p-fluorophenethyl)piperidine]
- Ki [1, 7]: > 100 µM
- Ki [2, 8]: > 100 µM
